Earlier results as cited in US20100056493A1, “MODIFIED RELEASE PHARMACEUTICAL COMPOSITION AND A PROCESS OF MAKING THE SAME” (priority 2007, published 2010).

Experiments:
[1] = tested on: de novo kidney allograft recipients; settings: P=NS
[2] = given in brackets after the drug name; no method stated
[3] = 720 mg mycophenolic acid as mycophenolate sodium twice daily or 1000 mg MMF twice daily

| SMILES | frequency of dosage reductions, discontinuation, or temporary interruptions of therapy secondary to GI toxicities [1, 3] | incidence of GI adverse events [1, 3] | overall incidence of efficacy failure (biopsy-proven acute rejection, graft loss, death, or loss to follow-up) ([1]; at 6 months, 720 mg mycophenolic acid as mycophenolate sodium twice daily (n=213) or 1000 mg MMF twice daily (n=210)) | BPAR rates ([1]; at 12 months, 720 mg mycophenolic acid as mycophenolate sodium twice daily or 1000 mg MMF twice daily) | pH [2] |
| --- | --- | --- | --- | --- | --- |
| COc1c(C)c2c(c(O)c1C/C=C(\C)CCC(=O)OCCN1CCOCC1)C(=O)OC2 [MMF, mycophenolate mofetil] | 17.6% | 78.1% | 28.1% | 24.3% | 7.2 |
| O=C(O)/C=C/C(=O)O.OCCOCCN1CCN(C2=Nc3ccccc3Sc3ccccc32)CC1 [Quetiapine fumarate, 2-[2-(4-dibenzo[b,f][1,4]thiazepin-11-yl-1-piperazinyl)ethoxy]-ethanol fumarate] |  |  |  |  | 5.4 |
| COc1c(C)c2c(c(O)c1C/C=C(\C)CCC(=O)O)C(=O)OC2 [mycophenolate sodium] | 13.1% | 78.4% |  |  |  |
